Laboratory results taken from US9157105B2, “Biosynthesis of CMP-legionaminic acid from fructose-6-P, and respective pathway intermediates, using novel GDP-linked precursors” (priority 2008, dated 2015).

Columns and labels:
[1] = test system: LegH (Cj1298, N-acetyltransferase); assay: LegH N-acetyltransferase reaction; format: biochemical, Campylobacter jejuni 11168; conditions: acetyl-CoA
Protocol: (§1) Enzymatic reactions were performed for 4.5 h at 37° C., and then overnight at 25° C., with approximately 200 μg ml^−1 respective protein concentration using chemicals from Sigma (unless otherwise indicated). GDP-glucosamine biosynthesis. The ‘one-pot’ enzymatic synthesis of GDP-GlcN from Fru-6-P (I→IV) was accomplished using a 3 ml reaction containing His6PtmF, PtmAHis6, PgmLHis6, His6PtmE, 5 mM Fru-6-P (I), 10 mM L-Gln, 1 mM DTT, 5 mM MgCl2, 0.8 U ml^−1 pyrophosphatase, and 2.5 mM GTP in 25 mM Tris pH 7.5. Large-scale enzymatic synthesis of GDP-GlcN (IV) was accomplished using a 12 ml reaction containing 50 mM Tris pH 7.5, 1 mM GTP, 1 mM MgCl2, 0.8 U ml^−1 pyrophosphatase, 1.2 mM GlcN-1-P (III) and approximately 4.8 mg of His6PtmE. The large-scale enzymatic synthesis of GDP-GlcNAc was performed similar to that above, except the scale was increased five-fold and GlcNAc-1-P was used in place of GlcN-1-P (III). […] In addition, the substrate flexibility of His6LegG was assessed using a 300 μl reaction containing 40 μg His6LegG, 25 mM sodium phosphate pH 7.3, 25 mM NaCl, and 0.75 mM UDP-2,4-diacetamido-2,4,6-trideoxy-α-D-Glc, with incubation at 37° C. for 1.5 h, and then overnight at 25° C. […] Quantification of NDP-sugar preparations was determined using the molar extinction coefficients of CMP (ε260=7,400), GDP (ε260=11,500), TDP (ε260=8,700), and UDP (ε260=10,000). […]

[2] = molecular target: T1, PglD (N-acetyltransferase) (Campylobacter jejuni subsp. jejuni serotype O:2, UniProt Q0P9D1); assay: PglD N-acetyltransferase reaction; format: biochemical; conditions: acetyl-CoA
T1 construct: His6 (C); made in house; host or cells: E. coli BL21[DE3]
T1 sequence (Q0P9D1 whole entry): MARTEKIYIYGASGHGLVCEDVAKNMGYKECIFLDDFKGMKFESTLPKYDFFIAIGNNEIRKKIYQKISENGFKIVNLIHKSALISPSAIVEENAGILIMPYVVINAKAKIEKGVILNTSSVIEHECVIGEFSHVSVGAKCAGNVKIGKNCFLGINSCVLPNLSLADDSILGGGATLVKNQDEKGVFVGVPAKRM

[3] = test system: LegC (Cj1320, PLP-dependent aminotransferase); assay: LegC aminotransferase reaction; format: biochemical, Campylobacter jejuni 11168; conditions: L-Glu
Protocol: as §1

Row | SMILES | LegH conversion of VII to VIII [1] [%] | PglD N-acetyltransfer of substrate [2] | LegC aminotransfer of substrate [3]
1 | CC(=O)NC1C(OP(=O)(O)OP(=O)(O)OCC2OC(n3cnc4c(=O)[nH]c(N)nc43)C(O)C2O)OC(C)C(N)C1O [VII, GDP-4-amino-4,6-dideoxy-N-acetyl-α-D-glucosamine] | 100 | able to catalyze N-acetyltransfer | –
2 | CC(=O)N[C@H]1[C@@H](OP(=O)(O)OP(=O)(O)OC[C@H]2O[C@@H](n3cnc4c(=O)[nH]c(N)nc43)[C@H](O)[C@@H]2O)O[C@H](C)C(=O)[C@@H]1O [VI, GDP-2-acetamido-2,6-dideoxy-α-D-xylo-hexos-4-ulose] | – | – | efficient aminotransfer
